Values quoted from earlier work as cited in US11504327B1, “Method of preparing nanoparticles by hot-melt extrusion” (priority 2019, dated 2022).

Conditions: polyethoxylated oleyl alcohols; Walters et al. 1993

| Substance | permeation enhancement of ibuprofen across human skin |
| --- | --- |
| oleth-2 | most effective permeation enhancer |
| oleth-20 | worst |
